The text below walks through data of paper PMC8365601, “Terphenyl-Based Small-Molecule Inhibitors of Programmed Cell Death-1/Programmed Death-Ligand 1 Protein–Protein Interaction” (Journal of Medicinal Chemistry, 2021).

Where two headings read alike, the source gives them in different places. Where only a bound is given, the exact number is not on record here.

The nature of data set [1]: Cytotoxicity assay toward Jurkat-ECs. The following applies: human, Jurkat-EC cells, SI csv. In kind it is cell-based. On the procedure: The cytotoxicity of compounds was verified toward Jurkat-ECs since these cells provide the readout in the ICB assay and present a much higher degree of susceptibility to the compounds’ toxicity than CHO-K1 cells (not shown). Jurkat-ECs were seeded on 96-well transparent plates in the presence of increasing concentrations of the compounds with DMSO-treated cells as a control. The concentration of DMSO was kept constant (0.1%). After 48 h of incubation, a tetrazolium reagent, Biolog redox dye MIX MB (Biolog), was added according to the manufacturer’s protocol, and the culture plates were incubated for an additional 2 h (37 °C, 5% CO2). The absorbance was measured using a Spark microplate reader (Tecan) at 590 nm with 750 nm as a reference. The data are presented as Jurkat-EC survival relative to DMSO-treated control cells. Data points represent mean ± SD values from three independent experiments. Half-maximal effective concentrations (EC50 values) were calculated from the dose–response curve using OriginPro 2020 (OriginLab) software.

Data set [2] relates to primary CD4+ and CD8+ T cells (PBMCs). Nature of the data set: T-cell activation (TCA) assay, PBMCs with CHO/TCRAct/PD-L1 cells, flow cytometry. The following applies: 48 h; compounds 0.1, 0.5, 2.5 μM; mAbs 5 μg/mL. In kind it is cell-based, human. On the procedure:
A standard ICB assay relies on artificial Jurkat-ECs, which are surrogates of T-cells. To verify the potential of the compounds to reactivate the PD-L1-blocked primary T cells, a modified assay termed T-cell activation (TCA) was carried out.[32] In this assay, human primary peripheral blood mononuclear cells (PBMCs) are allowed to make contact with CHO/TCRAct/PD-L1 cells alone or in the presence of PD-1/PD-L1 blockers, and the activation of CD4^+ and CD8^+ T cell is monitored by flow cytometry.
Anticoagulant citrate dextrose-A-treated blood from healthy donors was purchased from the Regional Center of Blood Donation and Blood Therapy in Krakow, Poland. PBMCs were isolated from whole blood by density gradient centrifugation using Pancoll human separating solution (PAN-Biotech GmbH, Aidenbach, Germany). The separated cells were washed and resuspended in RPMI 1640 medium (Biowest) containing 10% FBS (Biowest). PBMCs were added at an amount of 3 × 10^5 to CHO, CHO/TCRAct, or CHO/TCRAct/PD-L1 cells preseeded on 24-well plates in the presence of either anti-PD-L1 mAbs (at the final concentration 5 μg/mL): durvalumab (Selleckchem), atezolizumab (Selleckchem), or avelumab (MedChemExpress) or tested compounds at the concentrations 0.1, 0.5, and 2.5 μM. Untreated cells were used as controls for antibody treatment, while DMSO-treated cells [0.1% (v/v)] were used as controls for compound treatment. The cells were incubated for 48 h (37 °C, 5% CO2) and then detached from the plates with TrypLe Select Enzyme (Thermo Fisher). PBMCs were stained for 20 min at room temperature with the antibodies: anti-CD4-FITC, anti-CD8-BV510, anti-CD69-APC, anti-CD25-PE, anti-HLA-DR-PerCP, and anti-PD1-PECy7 (Becton Dickinson Biosciences, BD). Following two washing steps, the cells were analyzed with a FACSCanto II cytometer. Data analysis was carried out with FlowJo software, followed by statistical significance calculations done with Origin Pro 2020 software (OriginLab). Statistical significance was analyzed with one-way analysis of variance (ANOVA), followed by the Fisher’s posthoc test: *p < 0.05, **p < 0.01, […].
(A flow cytometer gives signals particle by particle.)

A further data set deals with murine PD-L1 (Mus musculus, UniProt Q9EP73). In words: 1H NMR titration with murine PD-L1. In kind it is binding. The following applies: over-titration 1:10 protein:compound. The procedure: We additionally compared the spectra of the interaction of 8j with hPD-L1 (Figure 2B) and murine PD-L1 (mPD-L1) (Figure 2C). Only for human PD-L1, changes in NMR were observed upon addition of 8j to the protein.
NMR spectra were recorded in PBS pH 7.4 containing 10% (v/v) of D2O added to the samples to provide the lock signal. Water suppression was carried out using the WATERGATE sequence. All the spectra were recorded at 300 K using a Bruker AVANCE 600 MHz spectrometer with the cryo-platform. The spectra were recorded at the ligand/protein ratio of 1:1, unless stated otherwise. The samples were prepared by adding small amounts of a 50 mM ligand stock solution in DMSO to the protein solution (0.20 mL) of PD-L1 fragment at a concentration of 0.2 mM. Spectra were visualized using TopSpin 4.0.2.

For the next data set, the target named is PD-1/PD-L1 complex (Homo sapiens, UniProt Q9NZQ7). In words: HTRF assay of PD-1/PD-L1 complex dissociation (CisBio).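 For all read-outs here: human PD-L1 at 5 nM with human PD-1 at 50 nM, TR-FRET signal read after 2 h at room temperature, background removed via negative control and scaled to positive control.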 To be noted: for remaining activity at 0.005 µM: 2 h.
The next data set addresses T1, PD-1/PD-L1 interaction (Homo sapiens, UniProt Q9NZQ7).
T1 construct: host or cells: CHO-K1 (CHO/TCRAct/PD-L1) and Jurkat effector cells
In words: PD-1/PD-L1 ICB assay (Jurkat-ECs with CHO/TCRAct/PD-L1 cells, luciferase). In kind it is cell-based. On the procedure: After a successful optimization of the terphenyl compounds, the activity of the optimized molecules 7a and 8a–j in a cellular context was assessed. To this end, we first performed the PD-1/PD-L1 ICB assay. In this assay, T-cell receptor (TCR)-mediated activation of Jurkat effector cells (Jurkat-ECs) is reduced by the presence of PD-L1, exposed at the surface of CHO/TCRAct/PD-L1 cells (Figure 3A).
The functional assay of the blockade of PD-1/PD-L1 interaction in vitro (PD-1/PD-L1 Blockade Bioassay, Promega) was performed according to the manufacturer’s protocol. CHO/TCRAct/PD-L1 cells or CHO/TCRAct or CHO-K1 cells were seeded on 96-well white plates at the density of 10,000 cells/well and the next day overlaid with Jurkat T cells (20,000 cells/well) in the presence of increasing concentrations of the compounds with DMSO only as a control (the concentration of DMSO was kept constant at 0.1%) or atezolizumab, as a positive control, anti-PD-L1 monoclonal antibody (Selleckchem). The 2.5-fold dilutions of atezolizumab were prepared in the assay buffer (RPMI 1640 + 1% FBS) on the day of the assay. Activation of the Jurkat T cells, reflected by luciferase activity, was monitored by luminescence measurements after 6 h of incubation (37 °C, 5% CO2), and 20 min of additional incubation with the Bio-Glo assay reagent (Promega) at room temperature. The luminescence was read on a Spark microplate reader (Tecan). The data are presented as fold induction of the luminescence signal relative to either untreated (for atezolizumab) or DMSO-treated (for compound) cells. Data points represent mean ± SD values from three to five independent experiments. Half-maximal effective concentrations (EC50 values) were calculated from the Hill curve fitting to the experimental data using Origin Pro 2020 software (OriginLab).

Chain of PD-1/PD-L1 complex (Q9NZQ7 19-238 limits assumed, one chain of several): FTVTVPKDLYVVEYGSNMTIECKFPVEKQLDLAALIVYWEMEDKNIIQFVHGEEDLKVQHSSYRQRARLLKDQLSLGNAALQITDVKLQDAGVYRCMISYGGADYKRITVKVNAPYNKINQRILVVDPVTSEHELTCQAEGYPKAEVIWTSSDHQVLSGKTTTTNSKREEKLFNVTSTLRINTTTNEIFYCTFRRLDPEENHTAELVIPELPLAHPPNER
T1 sequence (Q9NZQ7 19-290): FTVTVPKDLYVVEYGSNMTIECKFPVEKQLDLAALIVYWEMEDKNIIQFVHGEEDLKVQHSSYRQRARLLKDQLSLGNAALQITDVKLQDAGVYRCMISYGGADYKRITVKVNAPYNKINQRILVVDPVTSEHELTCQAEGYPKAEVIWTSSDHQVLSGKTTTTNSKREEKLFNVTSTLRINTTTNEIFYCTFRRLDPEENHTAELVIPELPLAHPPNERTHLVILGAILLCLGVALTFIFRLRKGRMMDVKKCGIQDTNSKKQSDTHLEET
Chain of murine PD-L1 (Q9EP73 18-134 limits assumed): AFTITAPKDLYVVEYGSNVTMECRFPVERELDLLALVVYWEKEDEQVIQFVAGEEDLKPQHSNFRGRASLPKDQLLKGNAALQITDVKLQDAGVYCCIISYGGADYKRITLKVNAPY
Description for PD-1/PD-L1 complex: HTRF was performed using the certified CisBio assay according to the manufacturer’s guidelines. The experiments were performed at 5 nM h-PD-L1 and 50 nM hPD-1 in the final formulation at 20 μL final volume in the well. To determine the half-maximal inhibitory concentration (IC50) of tested compounds, measurements were performed on two individual dilution series, unless states otherwise. After mixing all components according to the CisBio protocol, the plate was left for 2 h incubation at room temperature, followed by time-resolved fluorescence energy transfer (TR-FRET) measurement on Tecan Spark 20M. Collected data were background-subtracted on the negative control, normalized on the positive control, averaged, and fitted with normalized Hill’s equation to determine the IC50 value using Mathematica 12.

One may read the EC50 as the concentration at which the effect is half-maximal. One may read the IC50 as the concentration at which inhibition is half-maximal. Low readings indicate greater potency, high ones weaker potency. For `COc1cc(-c2cccc(-c3ccc4c(c3)OCCO4)c2Cl)ccc1CNC(CO)(CO)CO` [8j, 2-(((3′-(Benzo-1,4-dioxan-6-yl)-2′-chloro-3-methoxy-[1,1′-biphenyl]-4-yl)methyl)amino)-2-(hydroxymethyl)propane-1,3-diol], the response in data set [1] was half-maximal at 2880 ± 390 nM (EC50 at 48 h). In addition, the “numbers of PD-1-positive T cells” value in data set [2] was “significant increase”. Also, the “numbers of activated, CD25-positive and HLA-DR-positive T-cells” value in data set [2] was “increased”. Also, on murine PD-L1, the “interaction with mPD-L1 by 1H NMR” value is on record as “no interaction was observed”. Also, the remaining activity at 0.005 µM on PD-1/PD-L1 complex (read-out: % of undissociated complex at 5 nM) and at PD-1/PD-L1 complex (read-out: HTRF % of the undissociated complex at 5 nM) was 0% in each case. At PD-1/PD-L1 complex (HTRF, Table 4, <1.00 = limit of quantification reached), this compound displayed an IC50 of under 1 nM. In addition, on PD-1/PD-L1 interaction (EC50 (tox.) vs EC50 (bio.), Figure 3F), the “selectivity of PD-1/PD-L1-blocking activity versus cytotoxicity” value is “highest selectivity”. Also, the EC50 at PD-1/PD-L1 interaction (Jurkat-ECs with CHO/TCRAct/PD-L1, 6 h, SI csv, read-out: Bioactivity (EC50 in the ICB assay)) is 1030 ± 150 nM; on PD-1/PD-L1 interaction (read-out: EC50 in cell-based assays) it was about 1000 nM.
